Laboratory results reported in patent USRE43327E1, “Hydrophobic polyamine analogs and methods for their use” (Aminex Therapeutics, Inc., priority 2001, dated 2012).
Where “and” joins values, the source holds several entries; their conditions need not be identical. Equal values may be shown once. Read-outs that look alike come from different tables or passages of the source.

Tests used:
Format in all cases: cell-based
[1] = tested on: 4 cell lines (A375, MDA-MB-231, PC-3, SK-OV-3); assay: Growth inhibition with DFMO, average over 4 cell lines; conditions: for EC50: Table 3, average over cell lines, with DFMO, read-out: AVG. EC50
[2] = tested on: PC-3; assay: Growth inhibition assay, PA alone, PC-3; conditions: PA alone (no DFMO), six days, repeat determinations, read-out: Cell Line IC50 PC-3
Protocol: (§1) Medias were obtained from Mediatech, Inc. (Herdon, Va.) and serums from Gibco BRL (Gaithersburg, Md.). 50 U/ml penicillin, 50 μg/ml streptomycin and 2 mM L-glutamine (all from Bio Whittaker, Walkersville, Md.) were included in all cultures. […] When cells were cultured with polyamines or ORI compounds, 1 mM aminoguanidine (AG; Sigma) was included to inhibit serum amine oxidase activity.

[3] = tested on: SK-OV-3; assay: Growth inhibition assay, PA alone, SK-OV-3; conditions: PA alone (no DFMO), six days, repeat determinations, read-out: Cell Line IC50 SK-OV-3
Protocol: as §1

[4] = tested on: polyamine transport in MDA-MB-231 cells; assay: Polyamine transport and Ki assay (3H-spermidine uptake); conditions: 15 min 37° C., Lineweaver-Burke analysis
Protocol: [2,9-^3H]spermidine (SPD) from DuPont NEN, Boston, Mass. was added alone or simultaneously with PAs to 24-well plates containing MDA-MB-23 1 cells in log growth. The cells were incubated at 37° C. for 15 min to determine initial rate polyamine uptake. The cells were then washed three times with cold PBS, lysed with 0.1% SDS, and the amount of polyamine incorporation into the cells was determined by scintillation counting of the cell lysates. […] The Ki values were determined using double reciprocal Lineweaver-Burke plot analyses. Ki values were determined from linear equations derived from graphing the slopes of Lineweaver-Burke plot vs. inhibitor concentration, with Ki=y-intercept/slope.

[5] = tested on: SK-OV-3; assay: Growth inhibition assay (MTS/PMS) with DFMO, SK-OV-3; conditions: in the presence of DFMO (1-5 mM), 1 mM AG, 0.5 μM SPD, six days; repeat determinations; read-out: Cell Line EC50 SK-OV-3
Protocol: as §1

[6] = tested on: A375; assay: Growth inhibition assay (MTS/PMS) with DFMO, A375; conditions: in the presence of DFMO (1-5 mM), 1 mM AG, 0.5 μM SPD, six days; repeat determinations; read-out: Cell Line EC50 A375
Protocol: as §1

[7] = tested on: MDA-MB-231; assay: Growth inhibition assay (MTS/PMS) with DFMO, MDA-MB-231; conditions: in the presence of DFMO (1-5 mM), 1 mM AG, 0.5 μM SPD, six days; repeat determinations; read-out: Cell Line EC50 MDA-MB-231
Protocol: as §1

[8] = tested on: PC-3; assay: Growth inhibition assay (MTS/PMS) with DFMO, PC-3; conditions: in the presence of DFMO (1-5 mM), 1 mM AG, 0.5 μM SPD, six days; repeat determinations; read-out: Cell Line EC50 PC-3
Protocol: as §1

[9] = tested on: A375; assay: Growth inhibition assay, PA alone, A375; conditions: PA alone (no DFMO), six days, repeat determinations, read-out: Cell Line IC50 A375
Protocol: as §1

[10] = tested on: MDA-MB-231; assay: Growth inhibition assay, PA alone, MDA-MB-231; conditions: PA alone (no DFMO), six days; repeat determinations; read-out: Cell Line IC50 MDA-MB-231
Protocol: as §1

| EC50 [1] [nM] | IC50 [2] | IC50 [3] | EC50 [5] | EC50 [6] | EC50 [7] | EC50 [8] | growth inhibition / EC50 with polyamine synthesis inhibitor, comparison in words ([1]; compared with lysine-spermine conjugates (ORI 1202, ORI 1426) or PAs lacking a hydrophobic domain) | IC50 [9] | IC50 [10] [nM] | IC50 ([9]; Homo sapiens, A-375, 144 h) [nM] | IC50 ([2]; Homo sapiens, PC-3, 144 h) [nM] | IC50 ([3]; Homo sapiens, SK-OV-3, 144 h) [nM] | Compound | Ki [4] [nM] |
| --- | --- | --- | --- | --- | --- | --- | --- | --- | --- | --- | --- | --- | --- | --- |
| 17 | > 3000 nM | > 3000 nM |  |  |  |  |  |  |  |  |  |  | CCCCCCCCCCCCCCCCCCCC(=O)NCCCC[C@H](N)C(=O)NCCCNCCCCNCCCN [IA1] | 15 |
| 14 |  |  | 27 nM and 21 nM |  |  |  |  |  |  |  |  |  | CCCCCCCCCCCCCCCCCC(=O)NCCCC[C@H](N)C(=O)NCCCNCCCCNCCCN [IA2] | 1.4 |
| 77 |  |  |  |  |  |  |  |  |  |  |  |  | CCCCCCCCCCCCCCCC(=O)NCCCC[C@H](N)C(=O)NCCCNCCCCNCCCN [IA4] | 1.5 |
|  | > 30000 nM | > 30000 nM | > 30000 nM | 214 nM | > 30000 nM | > 30000 nM | no improvement | > 30000 nM | > 30000 |  |  |  | NCCCNCCCCNCCCNC(=O)[C@@H](N)CCCCNC(=O)CCCCCCCCC(=O)NCCCC[C@H](N)C(=O)NCCCNCCCCNCCCN [IA19] |  |
|  | > 300000 nM |  |  |  | 41300 nM and 29800 nM | 8510 nM and 7870 nM |  |  | > 300000 |  |  |  | NCCCNCCCCNCCCNC(=O)[C@@H](N)CCCCNC(=O)OCc1ccccc1 [IA40] | 39 |
| 105 |  |  |  |  |  |  |  |  |  |  |  |  | CCCCCCCCCCCCCCCC(=O)NCCCC[C@@H](N)C(=O)NCCCNCCCCNCCCN [IB4] | 17 |
|  |  |  |  |  |  |  |  |  |  | > 30000 | > 30000 | > 30000 | CCCCCCCCC(=O)NCCCC[C@@H](N)C(=O)NCCCNCCCCNCCCN [IB6] | 75 |
| > 100000 | > 100000 nM | > 100000 nM | > 100000 nM | > 100000 nM | > 100000 nM | > 100000 nM |  | > 100000 nM | > 100000 |  |  |  | CC(C)CC(=O)NCCCC[C@@H](N)C(=O)NCCCNCCCCNCCCN [IB35] |  |
|  | 430000 nM |  |  |  | 36900 nM | 16900 nM |  |  | > 300000 |  |  |  | CC(C)(C)OC(=O)N[C@@H](CCCCN)C(=O)NCCCNCCCCNCCCN [IC41] | 191 |
| 1260 | 18700 nM | 18100 nM | 2640 nM | 440 nM | 636 nM | 1330 nM |  | 17900 nM | 18600 |  |  |  | CCCCCCCCCCCCCCCC(=O)NC(CCCCN)C(=O)NCCCNCCCCNCCCN (stereo not shown) [ID4] |  |
| 9540 | > 30000 nM | > 30000 nM | 17200 nM | 5290 nM | 8250 nM | 7420 nM |  | > 30000 nM | > 30000 |  |  |  | CCCCCCCC(=O)NC(CCCCN)C(=O)NCCCNCCCCNCCCN (stereo not shown) [ID7] |  |
| 72 |  |  | 98 nM and 83 nM and 80 nM | 16 nM and 10 nM and 9 nM |  |  |  |  |  |  |  |  | CCCCCCCCCCCCCCCCS(=O)(=O)NCCCC[C@H](N)C(=O)NCCCNCCCCNCCCN [IIA10] | 4 |
| 1280 | > 30000 nM | > 30000 nM | 2650 nM | 405 nM | 1610 nM | 463 nM |  | > 30000 nM | > 30000 |  |  |  | CN(C)c1cccc2c(S(=O)(=O)NCCCC[C@H](N)C(=O)NCCCNCCCCNCCCN)cccc12 [IIA20] |  |
| 110 | 22000 nM and 19900 nM | 18100 nM and 23100 nM | 134 nM and 224 nM | 26 nM and 44 nM | 169 nM | 99 nM and 74 nM |  | 18000 nM and 17700 nM | > 30000 |  |  |  | CCCCCCCCCCCCCCCCS(=O)(=O)NCCCC[C@@H](N)C(=O)NCCCNCCCCNCCCN [IIB10] | 2 |
| > 30000 | > 30000 nM | > 30000 nM | > 30000 nM | > 30000 nM | > 30000 nM | > 30000 nM |  | > 30000 nM | > 30000 |  |  |  | CCS(=O)(=O)N[C@@H](CCCCN)C(=O)NCCCNCCCCNCCCN [IID2] |  |
| 9740 | > 30000 nM | > 30000 nM | 23900 nM | 5870 nM | 5100 nM | 4090 nM |  | > 30000 nM | > 30000 |  |  |  | Cc1cc(C)c(S(=O)(=O)NC(CCCCN)C(=O)NCCCNCCCCNCCCN)c(C)c1 (stereo not shown) [IID17] |  |
| 264 | > 30000 nM | > 30000 nM | 398 nM | 76 nM | 197 nM | 386 nM |  | > 30000 nM | > 30000 |  |  |  | CCCCCCCC/C=C\CCCCCCCC(=O)NCCCC[C@H](N)C(=O)NCCCNCCCCNCCCN [IIIA1] |  |
| 34 | > 30000 nM | > 30000 nM | 76 nM | 10 nM | 29 nM | 22 nM |  | > 30000 nM | > 30000 |  |  |  | CCCCCCCC/C=C/CCCCCCCC(=O)NCCCC[C@H](N)C(=O)NCCCNCCCCNCCCN [IIIA2] |  |
| 55 | 25800 nM | > 30000 nM | 95 nM | 18 nM | 47 nM | 60 nM |  | 22300 nM | > 30000 |  |  |  | CCCCC/C=C/C/C=C/CCCCCCCC(=O)NCCCC[C@H](N)C(=O)NCCCNCCCCNCCCN [IIIA6] |  |
| 874 | > 3000 nM | > 3000 nM | 2940 nM | 87 nM | 215 nM | 255 nM |  | > 3000 nM | > 3000 |  |  |  | C[C@H](CCC(=O)NCCCC[C@H](N)C(=O)NCCCNCCCCNCCCN)[C@H]1CC[C@H]2[C@@H]3[C@H](O)C[C@@H]4C[C@H](O)CC[C@]4(C)[C@H]3C[C@H](O)[C@]12C [IIIA7] |  |
| 583 | > 30000 nM | > 30000 nM | 1570 nM | 170 nM | 491 nM | 99 nM |  | > 30000 nM | > 30000 |  |  |  | CCCCCCCC/C=C\CCCCCCCC(=O)NCCCC[C@@H](N)C(=O)NCCCNCCCCNCCCN [IIIB1] | 54 |
| 395 | > 100000 nM | > 100000 nM | 240 nM | 540 nM | 510 nM | 290 nM |  | > 100000 nM | > 100000 |  |  |  | CCCCCCCNCCCC[C@H](N)C(=O)NCCCNCCCCNCCCN [IVA6] |  |
| 39 | > 3000 nM | > 3000 nM | 81 nM | 10 nM | 19 nM | 46 nM |  | > 3000 nM | > 3000 |  |  |  | CCCCCCCCCCCCCCCCNCCCC[C@H](N)C(=O)NCCCNCCCCNCCCN [IVA11] |  |
| 1010 | > 100000 nM | > 100000 nM | 937 nM | 739 nM | 1660 nM | 711 nM |  | > 100000 nM | > 100000 |  |  |  | CC(C)(C)CCNCCCC[C@H](N)C(=O)NCCCNCCCCNCCCN [IVA22] |  |
| 1900 | > 100000 nM | > 100000 nM | 2300 nM | 1040 nM | 3550 nM | 710 nM |  | > 100000 nM | > 100000 |  |  |  | NCCCNCCCCNCCCNC(=O)[C@@H](N)CCCCNCC1CC2C=CC1C2 (stereo partly shown) [IVA25] |  |
| 3410 | > 100000 nM | > 100000 nM | 7560 nM and 6070 nM | 2400 nM | 1990 nM | 910 nM and 1530 nM |  | > 100000 nM | > 100000 |  |  |  | NCCCNCCCCNCCCNC(=O)[C@H](N)CCCCNCC1CC2CCC1C2 (stereo partly shown) [IVB26] |  |
| 5090 | > 100000 nM | 67700 nM | 9500 nM | 940 nM | 8030 nM | 1880 nM |  | 67900 nM | > 100000 |  |  |  | CCCCCCCNCCCC[C@@H](NCCCCCCC)C(=O)NCCCNCCCCNCCCN [IVF6] |  |
| 1800 | > 100000 nM | > 100000 nM | 2160 nM | 2180 nM | 2340 nM | 500 nM |  | > 100000 nM | > 100000 |  |  |  | NCCCNCCCCNCCCNC(=O)[C@@H](CCCCNCC1CCCCC1)NCC1CCCCC1 [IVF27] |  |
